Laboratory results from patent US20210052532A1, “COMPOSITIONS AND METHODS FOR TREATMENT OF INSULIN RESISTANCE” (TEMPLE UNIVERSITY - OF THE COMMONWEALTH SYSTEM OF HIGHER …, priority 2018, published 2021).

Legend:
[1] = Adduct formation with the reactive aldehyde 4-HNE; conditions: diverts 4-HNE from damaging GLUT-4 by carbonylation
From the text: (§1) Without wishing to be bound by any theory, compounds of Formula I-III form adducts with reactive aldehydes such as 4-HNE, thereby diverting 4-HNE from damaging proteins such as GLUT-4, by carbonylation. […] Restoration of GLUT-4 function results in enhancement or restoration of adipocyte insulin sensitivity and the resumption or enhancement of glucose uptake.

adipocyte glucose uptake = experiment: Overnutrition-induced adipocyte glucose uptake impairment; assay type: cell-based; conditions: adipocytes
From the text: as §1

3T3-L1 adipocytes [2] = experiment: Insulin-stimulated glucose uptake in 3T3-L1 adipocytes, measured by MRM; assay type: cell-based; conditions: 3T3-L1 adipocytes treated 4 hr with 20 M (so in the source) of 4-HNE or H2O2 or both, then 100 nM insulin 60 min; FIG. 4 legend: 4-HNE 20 μM, H2O2 100 μM
Method: FIG. 4 graphically depicts glucose transport impairment in 3T3-L1 cells when exposed to 4-HNE (20 μM) and/or H2O2 (100 μM) for 4 hr.
(§2) GLUT4 carbonylations impair its function. To directly link the function impairment due to GLUT4 carbonylations to insulin resistance in vitro, GLUT4-SNAP fusion construct were generated and retroviral transduction in 3T3-L1 adipocytes were performed to overexpress the GLUT4-SNAP protein. Twenty-four hours after the transduction, the cells were treated with and without 20 μM of 4-HNE for an additional 4h. This 4-HNE dose was chosen because it was similar to the physiological levels and was non-toxic. […] 3T3-L1 adipocytes were treated with either 20 M of 4-HNE or H2O2 or the combination of both for 4 hr and were then stimulated with 100 nM insulin for 60 min. The glucose uptake was measured by an MRM method.

GLUT4-SNAP protein = experiment: Formation of K264-HNE GLUT4 adduct in 3T3-L1 cells overexpressing GLUT4-SNAP (MRM); assay type: cell-based; conditions: 4-HNE 20 μM for 4 hr, FIG. 3
From the text: FIG. 3 provides typical MRM data showing an increase in the transitions of HNE-induced K264-HNE adduct (left panel) which were used to calculate the amounts of carbonylated GLUT4 (right panel). Four transitions of the GLUT4 peptide found in humans are shown. The sequence of the carbonylated GLUT4 peptide LTGWADVSGVLAELKDEK-4HNE (SEQ ID NO:1) is depicted.
Certain conditions such as overnutrition can lead to oxidative stress, and the generation of reactive aldehydes such as 4-HNE, which react with cysteine, lysine and histidine residues of proteins via Michael addition and Schiff base formation. 4-HNE can form HNE-Michaels adducts on GLUT4, the major insulin-facilitated glucose transporter in adipose tissue. 3T3-L1 adipocytes retrovirally transduced to overexpress the GLUT4-SNAP protein formed a K264-HNE GLUT4 adduct upon treatment with 4-HNE. The same K264-HNE GLUT4 adduct is elevated in the fat tissue of human pre-diabetic and diabetic individuals.
GLUT4 carbonylations impair its function. To directly link the function impairment due to GLUT4 carbonylations to insulin resistance in vitro, GLUT4-SNAP fusion construct were generated and retroviral transduction in 3T3-L1 adipocytes were performed to overexpress the GLUT4-SNAP protein. […] The glucose uptake was measured by an MRM method.

3T3-L1 adipocytes [3] = experiment: Toxicity of the 4-HNE dose to the treated cells; assay type: cell-based; conditions: 20 μM of 4-HNE, 4h, transduced 3T3-L1 adipocytes
Method: as §2

SMILES | adduct formation with 4-HNE [1] | effect on glucose uptake impairment (adipocyte glucose uptake) | glucose uptake reduced / decrease in the glucose uptake (3T3-L1 adipocytes [2]) [%] | formation of the K264-HNE adduct (GLUT4-SNAP protein) | toxicity of dose (3T3-L1 adipocytes [3])
Cl.Cl.NCCCNCCCC[C@H](N)C(=O)O [Example 4, (S)-2-amino-6-((3-aminopropyl)amino)hexanoic acid dihydrochloride] | forms an adduct with 4-HNE | reversing overnutrition-induced glucose uptake impairment |  |  | 
OO [Example H2O2] |  |  | 66 |  | 
CCCCCC(O)/C=C/C=O (stereo not drawn) [Example 4-HNE, 4-hydroxynonenal] |  |  | 32 | induced the formation of the K264-HNE adduct | non-toxic
